Measurements published in PMC4413051, “Glutamate 338 is an electrostatic facilitator of C–Co bond breakage in a dynamic/electrostatic model of catalysis by ornithine aminomutase” (The Febs Journal, 2015).

Legend:
[1] = biological target: T1, ornithine 4,5-aminomutase (OAM) (Acetoanaerobium sticklandii, UniProt E3PY95, E335D); test: biochemical
T1 construct: gene oraE

[2] = biological target: T2, ornithine 4,5-aminomutase (OAM) (Acetoanaerobium sticklandii, UniProt E3PY95); test: anaerobic coupled DAPDH assay, NADH at […] nm; type: biochemical; details: read-out: Ki(DAB)
T2 construct: gene oraE; recombinant, expressed from pET-OAMH2 vector and purified; holoenzyme with PLP and AdoCbl; Glu338 (TIM barrel) and Lys629 lie in OraE
T2 sequence (E3PY95 1-740): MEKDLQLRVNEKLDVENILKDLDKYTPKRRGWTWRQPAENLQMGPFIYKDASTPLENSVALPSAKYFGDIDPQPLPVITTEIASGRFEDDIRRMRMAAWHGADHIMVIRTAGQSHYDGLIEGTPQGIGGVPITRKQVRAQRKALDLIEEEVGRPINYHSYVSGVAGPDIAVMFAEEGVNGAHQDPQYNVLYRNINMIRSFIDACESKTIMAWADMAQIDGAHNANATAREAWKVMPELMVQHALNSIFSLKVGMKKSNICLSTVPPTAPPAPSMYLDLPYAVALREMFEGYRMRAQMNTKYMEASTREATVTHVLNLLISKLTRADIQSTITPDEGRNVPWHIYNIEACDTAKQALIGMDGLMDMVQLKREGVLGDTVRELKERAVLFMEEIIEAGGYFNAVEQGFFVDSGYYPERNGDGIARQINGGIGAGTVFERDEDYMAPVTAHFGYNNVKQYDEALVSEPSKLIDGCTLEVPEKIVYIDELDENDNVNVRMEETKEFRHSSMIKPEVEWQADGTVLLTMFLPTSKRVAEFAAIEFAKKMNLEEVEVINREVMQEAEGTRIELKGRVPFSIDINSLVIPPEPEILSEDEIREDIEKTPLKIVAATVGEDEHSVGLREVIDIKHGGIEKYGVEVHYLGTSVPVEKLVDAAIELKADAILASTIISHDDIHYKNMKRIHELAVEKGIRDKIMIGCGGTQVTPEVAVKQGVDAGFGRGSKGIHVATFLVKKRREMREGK
T2 sequence (E3PY96 1-121 partner): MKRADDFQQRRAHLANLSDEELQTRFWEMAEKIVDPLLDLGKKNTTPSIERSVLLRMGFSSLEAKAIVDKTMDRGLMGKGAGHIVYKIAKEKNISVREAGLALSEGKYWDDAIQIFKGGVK

[3] = biological target: T3, ornithine 4,5-aminomutase (OAM) (Acetoanaerobium sticklandii, UniProt E3PY95, E335Q); test: biochemical
T3 construct: gene oraE

[4] = biological target: T4, ornithine 4,5-aminomutase (OAM) (Acetoanaerobium sticklandii, UniProt E3PY95, E335A); test: biochemical
T4 construct: gene oraE

## NCCC(N)C(=O)O (racemic) [D,L-2,4-diaminobutyric acid]
[1]
  Ki: 15.2 ± 1.5 µM
[2]
  Ki: 5.2 ± 0.1 µM
[3]
  Ki: 11.2 ± 0.1 µM
[4]
  Ki: 18.8 ± 2.2 µM
